Measurements published in PubChem BioAssay AID340 (DTP/NCI, 2004).
Where “and” joins values, the source holds several entries; their conditions need not be identical. Equal entries are not always repeated. Inconclusive results and toxic doses are left out. The calls were made as follows: active = survival T/C of 150% or more; inactive = T/C below 125% in these data.

Tested on: CD2F1 mice, ip reticulum cell sarcoma, survival T/C
Experiment: NCI In Vivo Anticancer Drug Screen. Data for tumor model Reticulum Cell Sarcoma (Kelley Mouse) (intraperitoneal) in CD2F1 (CDF1) mice
Conditions: endpoint: median survival time, higher = longer survival
Procedure: The antitumor activity of compounds was measured in mice bearing transplantable tumors. Survival or tumor size were measured and the results are expressed as the measurement made in the treated group (T) divided by the measurement made in the vehicle treated control group (C). The tumor model used in this assay is Reticulum Cell Sarcoma (Kelley Mouse) (intraperitoneal) in CD2F1 (CDF1) mice

[1] = dose: 50.0 mg/kg/injection, schedule: Q01DX010 (ip), vehicle: saline
[2] = dose: 100.0 mg/kg/injection, schedule: Q01DX010 (ip), vehicle: saline
[3] = dose: 400.0 mg/kg/injection, schedule: Q01DX010 (ip), vehicle: saline
[4] = dose: 31.3 mg/kg/injection, schedule: Q01DX010 (ip), vehicle: saline
[5] = dose: 62.5 mg/kg/injection, schedule: Q01DX010 (ip), vehicle: saline
[6] = dose: 125.0 mg/kg/injection, schedule: Q01DX010 (ip), vehicle: saline
[7] = dose: 250.0 mg/kg/injection, schedule: Q01DX010 (ip), vehicle: saline
[8] = dose: 12.5 mg/kg/injection, schedule: Q01DX010 (sc), vehicle: steriod suspending solution
[9] = dose: 25.0 mg/kg/injection, schedule: Q01DX010 (sc), vehicle: steriod suspending solution
[10] = dose: 50.0 mg/kg/injection, schedule: Q01DX010 (sc), vehicle: steriod suspending solution
[11] = dose: 100.0 mg/kg/injection, schedule: Q01DX010 (sc), vehicle: steriod suspending solution
[12] = dose: 500.0 mg/kg/injection, schedule: Q01DX010 (ip), vehicle: saline
[13] = dose: 25.0 mg/kg/injection, schedule: Q01DX010 (ip), vehicle: saline
[14] = dose: 200.0 mg/kg/injection, schedule: Q01DX010 (ip), vehicle: saline

Measured: T/C

CN(C)/N=N/c1nc[nH]c1C(N)=O
inactive: [1] 100 % of control | [2] 107 % of control and 120 % of control | [3] 100 % of control

CCCSc1ncnc2nc[nH]c12
inactive: [4] 100 % of control and 112 % of control | [5] 96 % of control and 106 % of control | [6] 96 % of control and 106 % of control | [7] 109 % of control

CC/C(=C(/CC)c1ccc(O)cc1)c1ccc(O)cc1
inactive: [8] 105 % of control and 110 % of control | [9] 105 % of control | [10] 100 % of control and 110 % of control | [11] 105 % of control and 115 % of control

CCOC(N)=O
inactive: [6] 102 % of control | [7] 97 % of control and 102 % of control | [12] 100 % of control and 102 % of control | dose: 1000.0 mg/kg/injection, schedule: Q01DX010 (ip), vehicle: saline 88 % of control and 100 % of control

Nc1ncnc2[nH]ncc12
inactive: dose: 1.5 mg/kg/injection, schedule: Q01DX010 (ip), vehicle: saline 100 % of control and 107 % of control | dose: 3.0 mg/kg/injection, schedule: Q01DX010 (ip), vehicle: saline 100 % of control and 110 % of control | dose: 6.0 mg/kg/injection, schedule: Q01DX010 (ip), vehicle: saline 105 % of control and 110 % of control | dose: 12.0 mg/kg/injection, schedule: Q01DX010 (ip), vehicle: saline 97 % of control and 100 % of control

CS(=O)(=O)OCCCl
inactive: dose: 18.8 mg/kg/injection, schedule: Q01DX010 (ip), vehicle: saline 103 % of control | dose: 37.5 mg/kg/injection, schedule: Q01DX010 (ip), vehicle: saline 106 % of control and 115 % of control | dose: 75.0 mg/kg/injection, schedule: Q01DX010 (ip), vehicle: saline 100 % of control

O=[n+]1c2c(n([O-])c3ccccc31)-c1cccc3cccc-2c13
inactive: [13] 92 % of control and 100 % of control | [1] 92 % of control and 106 % of control | [2] 100 % of control and 103 % of control | [14] 92 % of control and 100 % of control

N#CCSc1ncnc2nc[nH]c12
inactive: dose: 7.5 mg/kg/injection, schedule: Q01DX010 (ip), vehicle: saline 100 % of control | dose: 15.0 mg/kg/injection, schedule: Q01DX010 (ip), vehicle: saline 103 % of control | dose: 30.0 mg/kg/injection, schedule: Q01DX010 (ip), vehicle: saline 100 % of control and 103 % of control | dose: 60.0 mg/kg/injection, schedule: Q01DX010 (ip), vehicle: saline 103 % of control and 106 % of control

NC(CCSCc1ccc(N(CCCl)CCCl)cc1)C(=O)O (stereo not drawn)
inactive: dose: 4.5 mg/kg/injection, schedule: Q01DX010 (ip), vehicle: saline 100 % of control | dose: 9.0 mg/kg/injection, schedule: Q01DX010 (ip), vehicle: saline 106 % of control and 117 % of control | dose: 18.0 mg/kg/injection, schedule: Q01DX010 (ip), vehicle: saline 106 % of control and 117 % of control | dose: 36.0 mg/kg/injection, schedule: Q01DX010 (ip), vehicle: saline 110 % of control and 111 % of control

Nc1nc(F)nc2c1ncn2C1OC(CO)C(O)C1O (stereo not drawn)
inactive: dose: 0.25 mg/kg/injection, schedule: Q01DX010 (ip), vehicle: saline 100 % of control | dose: 0.5 mg/kg/injection, schedule: Q01DX010 (ip), vehicle: saline 100 % of control and 105 % of control | dose: 1.0 mg/kg/injection, schedule: Q01DX010 (ip), vehicle: saline 91 % of control and 103 % of control | dose: 2.0 mg/kg/injection, schedule: Q01DX010 (ip), vehicle: saline 100 % of control and 105 % of control | dose: 4.0 mg/kg/injection, schedule: Q01DX010 (ip), vehicle: saline 88 % of control

COc1ccc2c(c1OC)C(=O)O[C@@H]2[C@H]1c2c(cc3c(c2OC)OCO3)CCN1C
inactive: dose: 7.8 mg/kg/injection, schedule: Q01DX010 (ip), vehicle: saline 100 % of control | dose: 15.6 mg/kg/injection, schedule: Q01DX010 (ip), vehicle: saline 100 % of control | [4] 97 % of control and 102 % of control | [5] 91 % of control and 97 % of control | [6] 91 % of control | [7] 91 % of control

CS(=O)(=O)OCC(O)C(O)C(O)C(O)COS(C)(=O)=O (stereo not drawn)
inactive: [13] 102 % of control | [1] 100 % of control and 111 % of control | [2] 100 % of control and 102 % of control | [14] 100 % of control and 111 % of control | [3] 110 % of control

OCC1OC(n2cnc3c(Cl)ncnc32)C(O)C1O (stereo not drawn)
inactive: [5] 97 % of control and 100 % of control | [6] 92 % of control and 100 % of control | [7] 95 % of control and 102 % of control | [12] 91 % of control and 92 % of control

C[C@]12C=CC(=O)C=C1CC[C@@H]1[C@@H]2[C@@H](O)C[C@@]2(C)[C@H]1CC[C@]2(O)C(=O)CO
inactive: [8] 97 % of control and 100 % of control | [9] 94 % of control and 100 % of control | [10] 94 % of control and 97 % of control | [11] 94 % of control and 100 % of control
